Reference: ChEMBL document CHEMBL1201862, “PubChem BioAssay data set” (2004)
Active and inactive are the calls of the source.

Experiments:
[1] = molecular target: Eukaryotic translation initiation factor 4H (Homo sapiens, UniProt Q15056); assay: human eIF4H binding inhibitors, primary screen, translation initiation inhibitor project, biochemical, uHTS, fluorescence polarization (AID 2012)
[2] = molecular target: Polyadenylate-binding protein 1 (Homo sapiens, UniProt P11940); assay: PABP poly(A) RNA binding inhibitors, primary screen, biochemical, fluorescence polarization, uHTS (AID 2014)
Chain of Polyadenylate-binding protein 1 (P11940 whole entry): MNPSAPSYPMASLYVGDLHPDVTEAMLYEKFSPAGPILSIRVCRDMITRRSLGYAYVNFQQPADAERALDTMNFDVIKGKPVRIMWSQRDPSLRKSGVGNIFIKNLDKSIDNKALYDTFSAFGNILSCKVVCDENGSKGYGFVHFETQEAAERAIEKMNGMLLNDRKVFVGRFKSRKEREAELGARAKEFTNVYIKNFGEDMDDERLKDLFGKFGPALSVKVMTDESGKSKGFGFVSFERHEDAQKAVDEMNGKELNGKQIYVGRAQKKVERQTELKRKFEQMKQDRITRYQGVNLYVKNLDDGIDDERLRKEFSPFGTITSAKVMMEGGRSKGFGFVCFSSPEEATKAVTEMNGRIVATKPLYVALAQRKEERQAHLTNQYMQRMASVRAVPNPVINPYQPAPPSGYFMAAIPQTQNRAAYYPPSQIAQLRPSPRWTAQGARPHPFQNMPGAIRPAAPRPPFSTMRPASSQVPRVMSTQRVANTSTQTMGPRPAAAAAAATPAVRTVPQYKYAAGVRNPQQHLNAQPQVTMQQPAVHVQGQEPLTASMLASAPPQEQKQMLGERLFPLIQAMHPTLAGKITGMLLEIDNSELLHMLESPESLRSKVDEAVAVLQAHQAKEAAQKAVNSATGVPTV

[3] = LGR2 antagonists, dose response, cell-based, HEK293, CRE-luciferase reporter, cherry pick, set 2 (AID 743343); type: functional;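 further: transfected cells were stimulated with diluted bursicon conditioned medium after compound addition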
[4] = MC4R antagonists, dose response, counter-screen for LGR2 antagonist project, cell-based, plate reader, cherry pick (AID 743444); type: functional;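 further: transfected HEK 293 cells stimulated with alpha-MSH peptide; potency of inhibitors of the alpha-MSH evoked signal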
[5] = HepG2 cell cytotoxicity, dose response, cytotoxicity control, plate reader, cherry-pick, antagonist series (AID 743416); type: functional, cell-based
[6] = test system: HT-1080; assay: cytotoxicity in HT1080 fibrosarcoma cells, cell-based, fluorescence readout (AID 620); type: functional; settings: Homo sapiens
[7] = molecular target: T1, Heat shock factor protein 1 (Mus musculus, UniProt P38532); assay: inhibition of MG132-induced HSE-luciferase signal, confirmation, cell-based, NIH3T3, luminescence, dose retest (AID 2382); type: functional;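 further: NIH3T3 fibroblasts with HSF1-driven luciferase reporter stressed by proteasome inhibitor MG132; luminescence from HSF1-driven luciferase expression after 8 hours of MG132 stress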
T1 sequence (P38532 whole entry): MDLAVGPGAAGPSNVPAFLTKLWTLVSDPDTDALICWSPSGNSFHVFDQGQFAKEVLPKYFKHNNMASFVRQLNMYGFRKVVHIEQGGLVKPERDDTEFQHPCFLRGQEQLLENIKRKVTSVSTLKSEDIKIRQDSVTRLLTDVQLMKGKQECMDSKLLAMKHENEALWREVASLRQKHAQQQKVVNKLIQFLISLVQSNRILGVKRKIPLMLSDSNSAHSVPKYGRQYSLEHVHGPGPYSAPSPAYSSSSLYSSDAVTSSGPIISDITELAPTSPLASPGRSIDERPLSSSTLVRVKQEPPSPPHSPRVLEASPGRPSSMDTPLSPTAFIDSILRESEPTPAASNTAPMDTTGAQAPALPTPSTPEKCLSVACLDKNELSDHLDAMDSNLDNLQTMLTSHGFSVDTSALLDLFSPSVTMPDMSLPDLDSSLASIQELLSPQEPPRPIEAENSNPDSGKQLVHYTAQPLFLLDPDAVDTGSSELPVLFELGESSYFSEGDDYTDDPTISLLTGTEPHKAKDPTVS

[8] = A549 cell cytotoxicity, dose response, cytotoxicity control, plate reader, cherry-pick, antagonist series (AID 743412); type: functional, cell-based
[9] = molecular target: Luciferin 4-monooxygenase (Photinus pyralis, UniProt P08659); assay: Counter Screen for Luciferase-based Assay Positives. [Related pubchem assays: 620, 618, 411 ]
Chain of Luciferin 4-monooxygenase (P08659 whole entry): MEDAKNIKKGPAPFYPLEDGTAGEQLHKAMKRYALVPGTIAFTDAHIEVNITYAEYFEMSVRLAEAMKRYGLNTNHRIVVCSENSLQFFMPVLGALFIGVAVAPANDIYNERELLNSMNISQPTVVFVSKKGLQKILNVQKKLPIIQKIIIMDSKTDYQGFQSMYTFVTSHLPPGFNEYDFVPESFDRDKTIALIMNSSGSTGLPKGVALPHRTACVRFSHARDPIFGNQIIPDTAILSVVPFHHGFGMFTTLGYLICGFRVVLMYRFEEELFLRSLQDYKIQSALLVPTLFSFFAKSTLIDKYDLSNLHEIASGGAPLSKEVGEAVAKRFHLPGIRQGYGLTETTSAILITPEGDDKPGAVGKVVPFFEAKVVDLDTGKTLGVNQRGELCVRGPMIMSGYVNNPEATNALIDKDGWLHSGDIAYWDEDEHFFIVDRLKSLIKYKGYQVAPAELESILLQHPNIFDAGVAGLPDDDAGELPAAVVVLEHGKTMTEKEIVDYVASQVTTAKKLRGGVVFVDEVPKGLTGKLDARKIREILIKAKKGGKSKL

[10] = molecular target: Melanin-concentrating hormone receptor 1 (Homo sapiens, UniProt Q99705); assay: Late-stage fluorescence-based counterscreen for antagonists of the G-protein coupled receptor 7 (GPR7): cell-based dose response assay to identify antagonists of the melanin-concentrating hormone receptor 1 (MCHR1). [Related pubchem assays (depositor defined):AID1861, AID1880, AID1952, AID2148, AID2251, AID2257, AID485339]; type: functional;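 further: stimulated with 30 nM MCH peptide agonist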
Chain of Melanin-concentrating hormone receptor 1 (Q99705 whole entry): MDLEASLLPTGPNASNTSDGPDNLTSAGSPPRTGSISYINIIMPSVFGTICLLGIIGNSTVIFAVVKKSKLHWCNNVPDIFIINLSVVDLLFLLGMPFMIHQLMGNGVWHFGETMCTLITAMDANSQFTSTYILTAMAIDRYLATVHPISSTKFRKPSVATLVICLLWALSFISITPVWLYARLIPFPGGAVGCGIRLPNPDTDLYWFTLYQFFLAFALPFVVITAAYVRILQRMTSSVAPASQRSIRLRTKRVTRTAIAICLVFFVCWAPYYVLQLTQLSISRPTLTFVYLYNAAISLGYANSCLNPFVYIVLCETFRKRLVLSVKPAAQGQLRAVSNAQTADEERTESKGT

[11] = growth suppression of PTEN-null colon cells, dose response, cell-based, HCT116 PTEN knockout (AID 1047); type: functional;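 further: HCT116 colon tumor cells with PTEN knocked out; cells exposed to compound for 60 hours before readout; potency for loss of cell viability measured by luminescence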
[12] = growth suppression of beta-catenin-knockout colon cells, dose response, cell-based, HCT116, human colon tumor (AID 1045); type: functional;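 further: HCT116 colon tumor cells with beta catenin knocked out; cells exposed to compound for 60 hours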
[13] = molecular target: T2, Microphthalmia-associated transcription factor (Homo sapiens, UniProt O75030); assay: TRPM1 promoter luciferase signal decrease, dose response, MITF inhibitor project, cell-based, SK-MEL-5, cherry-picked, set 3 (AID 493073); type: functional
T2 sequence (O75030 whole entry): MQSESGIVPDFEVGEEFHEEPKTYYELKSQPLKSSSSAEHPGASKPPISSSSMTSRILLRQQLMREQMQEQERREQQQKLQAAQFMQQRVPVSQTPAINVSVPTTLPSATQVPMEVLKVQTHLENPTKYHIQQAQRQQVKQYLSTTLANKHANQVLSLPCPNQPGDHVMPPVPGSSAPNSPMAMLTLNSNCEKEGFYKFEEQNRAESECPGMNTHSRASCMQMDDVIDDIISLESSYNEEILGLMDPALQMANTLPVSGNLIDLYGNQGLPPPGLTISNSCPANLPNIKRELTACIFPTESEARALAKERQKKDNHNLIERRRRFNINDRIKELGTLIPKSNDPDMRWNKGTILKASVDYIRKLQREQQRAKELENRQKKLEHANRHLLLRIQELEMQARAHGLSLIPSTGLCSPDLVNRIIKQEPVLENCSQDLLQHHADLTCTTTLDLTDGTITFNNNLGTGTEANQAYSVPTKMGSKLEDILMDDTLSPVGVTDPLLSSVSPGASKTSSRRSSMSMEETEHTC

[14] = molecular target: Nonstructural protein 1 (Influenza A virus, UniProt Q194T2); type: functional, Influenza A virus (A/California/07/2009(H1N1))
Chain of Nonstructural protein 1 (Q194T2 whole entry): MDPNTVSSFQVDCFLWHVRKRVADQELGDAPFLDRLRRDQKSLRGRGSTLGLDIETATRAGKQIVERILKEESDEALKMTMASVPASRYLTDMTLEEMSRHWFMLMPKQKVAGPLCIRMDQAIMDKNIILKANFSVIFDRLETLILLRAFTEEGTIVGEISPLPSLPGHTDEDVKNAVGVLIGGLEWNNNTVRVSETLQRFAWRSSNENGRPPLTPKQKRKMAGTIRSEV

[15] = molecular target: T3, Tyrosine-protein phosphatase non-receptor type 7 (Homo sapiens, UniProt P35236); type: functional
T3 sequence (P35236 whole entry): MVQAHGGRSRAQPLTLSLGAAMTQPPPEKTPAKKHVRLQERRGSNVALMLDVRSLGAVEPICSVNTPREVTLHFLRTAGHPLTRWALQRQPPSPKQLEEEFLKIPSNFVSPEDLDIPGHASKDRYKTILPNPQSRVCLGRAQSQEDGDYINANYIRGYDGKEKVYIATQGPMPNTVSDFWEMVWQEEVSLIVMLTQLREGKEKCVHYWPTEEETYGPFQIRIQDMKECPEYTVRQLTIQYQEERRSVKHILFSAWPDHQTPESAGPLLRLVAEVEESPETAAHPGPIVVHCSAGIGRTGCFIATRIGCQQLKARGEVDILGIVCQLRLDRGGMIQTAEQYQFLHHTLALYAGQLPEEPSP

[16] = molecular target: T4, Dual specificity protein phosphatase 6 (Rattus norvegicus, UniProt Q64346)
T4 sequence (Q64346 whole entry): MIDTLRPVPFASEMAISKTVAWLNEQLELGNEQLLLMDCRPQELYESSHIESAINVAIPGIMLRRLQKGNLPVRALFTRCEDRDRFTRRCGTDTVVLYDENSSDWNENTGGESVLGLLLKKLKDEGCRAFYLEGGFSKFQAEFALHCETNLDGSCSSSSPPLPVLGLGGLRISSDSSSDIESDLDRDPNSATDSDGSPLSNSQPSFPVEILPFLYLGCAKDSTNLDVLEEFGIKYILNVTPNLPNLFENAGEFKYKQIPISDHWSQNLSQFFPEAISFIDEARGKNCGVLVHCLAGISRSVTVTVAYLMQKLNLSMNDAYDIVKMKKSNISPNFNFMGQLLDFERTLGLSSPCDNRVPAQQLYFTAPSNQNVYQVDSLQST

[17] = molecular target: Glyceraldehyde-3-phosphate dehydrogenase (Homo sapiens, UniProt P04406)
Chain of Glyceraldehyde-3-phosphate dehydrogenase (P04406 whole entry): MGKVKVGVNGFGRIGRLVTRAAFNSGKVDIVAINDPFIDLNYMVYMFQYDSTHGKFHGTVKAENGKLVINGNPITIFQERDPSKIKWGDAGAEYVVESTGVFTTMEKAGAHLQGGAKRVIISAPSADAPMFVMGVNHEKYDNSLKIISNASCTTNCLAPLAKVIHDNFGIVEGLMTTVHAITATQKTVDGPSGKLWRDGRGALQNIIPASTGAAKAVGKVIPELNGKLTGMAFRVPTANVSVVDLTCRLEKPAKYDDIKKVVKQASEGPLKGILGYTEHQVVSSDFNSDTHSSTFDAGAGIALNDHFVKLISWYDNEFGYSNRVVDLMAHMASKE

[18] = molecular target: T4, Dual specificity protein phosphatase 6; type: functional
[19] = molecular target: T5, SUMO-activating enzyme (Homo sapiens, UniProt Q9UBT2); assay: SUMOylation inhibitor hit validation, confirmation, SUMOylation inhibitor project, biochemical, AlphaScreen (AID 2018); type: functional
T5 sequence (Q9UBE0 whole entry, the tested form may be a part): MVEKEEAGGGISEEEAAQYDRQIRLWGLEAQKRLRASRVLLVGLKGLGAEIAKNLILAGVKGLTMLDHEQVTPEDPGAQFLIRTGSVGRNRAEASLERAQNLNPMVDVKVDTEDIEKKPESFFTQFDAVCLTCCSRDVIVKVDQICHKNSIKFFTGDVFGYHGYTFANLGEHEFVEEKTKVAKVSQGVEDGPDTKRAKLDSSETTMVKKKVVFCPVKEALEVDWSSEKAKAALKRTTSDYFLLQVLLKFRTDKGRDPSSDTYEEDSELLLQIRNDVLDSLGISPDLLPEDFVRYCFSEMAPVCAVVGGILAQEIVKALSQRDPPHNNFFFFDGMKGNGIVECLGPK
T5 sequence (Q9UBT2 whole entry, the tested form may be a part): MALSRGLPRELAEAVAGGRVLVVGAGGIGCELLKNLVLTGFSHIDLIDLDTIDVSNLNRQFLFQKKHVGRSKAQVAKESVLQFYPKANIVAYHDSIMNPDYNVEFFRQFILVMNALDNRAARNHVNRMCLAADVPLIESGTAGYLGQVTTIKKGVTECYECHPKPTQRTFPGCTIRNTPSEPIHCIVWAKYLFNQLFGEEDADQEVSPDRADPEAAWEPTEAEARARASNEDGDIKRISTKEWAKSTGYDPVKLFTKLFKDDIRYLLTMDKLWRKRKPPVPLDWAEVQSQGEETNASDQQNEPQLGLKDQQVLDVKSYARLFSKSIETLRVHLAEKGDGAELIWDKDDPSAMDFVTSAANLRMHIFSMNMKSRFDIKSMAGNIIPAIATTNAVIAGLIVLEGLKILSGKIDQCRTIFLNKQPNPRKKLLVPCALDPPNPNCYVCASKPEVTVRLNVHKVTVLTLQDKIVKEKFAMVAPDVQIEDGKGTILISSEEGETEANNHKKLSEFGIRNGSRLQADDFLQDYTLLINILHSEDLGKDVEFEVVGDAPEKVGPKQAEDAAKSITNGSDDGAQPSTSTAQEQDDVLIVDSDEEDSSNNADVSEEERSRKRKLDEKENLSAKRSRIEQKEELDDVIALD

[20] = molecular target: T6, RNA-binding protein pos-1 (Caenorhabditis elegans, UniProt G5EF15); assay: inhibitors of POS-1/mex-3 RNA binding, dose response, biochemical, fluorescence polarization (AID 1964);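 further: purified POS-1 fused to maltose binding protein made in E. coli; potency of compounds blocking POS-1 binding to fluorescent RNA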
T6 sequence (G5EF15 whole entry): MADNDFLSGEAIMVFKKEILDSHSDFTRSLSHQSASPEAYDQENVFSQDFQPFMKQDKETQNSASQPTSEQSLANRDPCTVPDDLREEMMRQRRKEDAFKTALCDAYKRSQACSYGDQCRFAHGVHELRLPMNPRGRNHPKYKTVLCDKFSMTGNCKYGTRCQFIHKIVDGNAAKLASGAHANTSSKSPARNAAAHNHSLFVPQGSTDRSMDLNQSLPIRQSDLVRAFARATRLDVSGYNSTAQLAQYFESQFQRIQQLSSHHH

[21] = molecular target: T7, Zinc finger protein mex-5 (Caenorhabditis elegans, UniProt Q9XUB2); assay: MEX-5/TCR-2 RNA interaction inhibitors, dose response, biochemical, C. elegans, fluorescence polarization (AID 1960)
T7 sequence (Q9XUB2 whole entry): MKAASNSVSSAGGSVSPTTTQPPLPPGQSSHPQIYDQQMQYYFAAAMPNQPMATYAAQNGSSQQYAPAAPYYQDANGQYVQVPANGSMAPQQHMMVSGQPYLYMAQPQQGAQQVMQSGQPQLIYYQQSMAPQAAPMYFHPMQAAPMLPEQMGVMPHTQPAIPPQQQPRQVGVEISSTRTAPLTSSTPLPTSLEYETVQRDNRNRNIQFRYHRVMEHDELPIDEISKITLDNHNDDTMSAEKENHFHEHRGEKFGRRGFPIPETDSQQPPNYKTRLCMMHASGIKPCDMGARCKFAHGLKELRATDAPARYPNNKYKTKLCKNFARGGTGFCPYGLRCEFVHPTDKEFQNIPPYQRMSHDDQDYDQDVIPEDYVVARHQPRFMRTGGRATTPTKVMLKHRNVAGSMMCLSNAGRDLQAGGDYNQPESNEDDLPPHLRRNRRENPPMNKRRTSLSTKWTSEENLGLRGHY

[22] = molecular target: T8, Leucine aminopeptidase (Plasmodium falciparum 3D7, UniProt Q8IL11); assay: P. falciparum M17LAP inhibitors, primary screen, biochemical, fluorogenic H-Leu-NHMec substrate, 1536-well (AID 1619); type: functional
T8 sequence (Q8IL11 whole entry): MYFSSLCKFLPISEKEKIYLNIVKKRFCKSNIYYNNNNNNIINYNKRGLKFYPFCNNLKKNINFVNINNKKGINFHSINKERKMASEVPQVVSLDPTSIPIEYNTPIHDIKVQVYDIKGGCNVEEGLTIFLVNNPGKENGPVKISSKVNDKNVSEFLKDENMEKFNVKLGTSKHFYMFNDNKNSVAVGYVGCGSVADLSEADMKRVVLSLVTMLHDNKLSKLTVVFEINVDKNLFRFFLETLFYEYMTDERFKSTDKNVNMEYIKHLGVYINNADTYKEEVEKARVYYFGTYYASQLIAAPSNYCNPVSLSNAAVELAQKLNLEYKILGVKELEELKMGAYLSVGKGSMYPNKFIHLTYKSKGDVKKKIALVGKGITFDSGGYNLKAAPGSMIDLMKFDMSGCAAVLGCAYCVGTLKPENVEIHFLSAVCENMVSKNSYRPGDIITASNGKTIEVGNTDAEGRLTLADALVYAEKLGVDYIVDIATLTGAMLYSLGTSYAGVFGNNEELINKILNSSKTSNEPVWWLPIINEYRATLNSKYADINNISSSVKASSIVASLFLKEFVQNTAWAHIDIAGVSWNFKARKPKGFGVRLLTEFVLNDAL

[23] = molecular target: T5, SUMO-activating enzyme; assay: inhibitors of in vitro SUMOylation cascade, primary screen, biochemical, HTRF, uHTS (AID 2006); type: protein-complex assay
[24] = molecular target: Eukaryotic translation initiation factor 4E (Mus musculus, UniProt P63073); assay: eIF4E–eIF4G protein interaction inhibitors, dose response, biochemical, TR-FRET (AID 855); type: functional;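 further: potency for disrupting eIF4E binding to eIF4GI seen as loss of FRET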
Chain of Eukaryotic translation initiation factor 4E (P63073 whole entry): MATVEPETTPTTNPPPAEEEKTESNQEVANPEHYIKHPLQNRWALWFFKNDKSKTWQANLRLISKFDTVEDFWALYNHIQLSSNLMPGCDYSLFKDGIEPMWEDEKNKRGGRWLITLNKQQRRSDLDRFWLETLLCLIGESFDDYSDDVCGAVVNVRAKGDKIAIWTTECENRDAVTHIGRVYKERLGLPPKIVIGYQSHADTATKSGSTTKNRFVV

[25] = molecular target: T9, Caspase-6 (Homo sapiens, UniProt P55212); assay: human caspase-6 inhibitors, dose response, biochemical, VEID-R110 fluorescence, cherry-pick (AID 720632)
T9 sequence (P55212 whole entry): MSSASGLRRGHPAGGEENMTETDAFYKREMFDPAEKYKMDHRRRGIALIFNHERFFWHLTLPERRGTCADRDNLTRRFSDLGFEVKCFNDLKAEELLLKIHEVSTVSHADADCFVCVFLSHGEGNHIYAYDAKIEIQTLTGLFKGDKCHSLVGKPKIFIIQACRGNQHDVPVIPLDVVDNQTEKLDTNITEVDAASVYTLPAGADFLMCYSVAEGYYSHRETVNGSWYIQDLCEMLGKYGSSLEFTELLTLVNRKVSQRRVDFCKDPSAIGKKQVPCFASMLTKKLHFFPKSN

Structure (SMILES): CN(CC(=O)NC(=O)NCc1ccco1)CC(=O)Nc1ccccc1Cl
- IC50 [1]: 20.5 µM (active)
- IC50 [2]: 60.8 µM (active)

Structure (SMILES): Cc1oc(-c2ccc3c(c2)OCCO3)cc1C(=O)O
- AC50 [3]: 7.05 µM (active)
- AC50 [4]: 7.49 µM (active)
- AC50 [5]: > 52 µM (inactive)
- EC50 [6]: > 50 µM (not active)
- EC50 [7]: 0.312 µM (active)
- AC50 [8]: > 52 µM (inactive)
- EC50 [9]: 1.25 µM (active)

Structure (SMILES): Cc1ccccc1SCC(=O)N1CCN(c2ccc(C(F)(F)F)cn2)CC1
- IC50 [1]: > 100 µM (inactive)
- IC50 [2]: > 100 µM (inactive)

Structure (SMILES): CC(C)c1ccc(-n2ncc(Cl)c(Oc3ccc(OC(F)(F)F)cc3)c2=O)cc1
- IC50 [10]: 12 µM (inactive)

Structure (SMILES): CN(C)c1ccc(NC(=S)c2ccccn2)cc1
- EC50 [11]: 92.2 µM (active)
- EC50 [12]: 136 µM (active)
- AC50 [13]: 2.84 µM (active)
- EC50 [6]: > 50 µM (not active)
- IC50 [14]: 28.3 µM (active)
- EC50 [9]: 0.52 µM (active)

Structure (SMILES): Cc1cc(O)c2c(c1)C1C=CCC1C(C(=O)O)N2 (stereo not drawn)
- IC50 [15]: 2.41 µM (active)
- IC50 [16]: > 100 µM (inactive)
- IC50 [17]: > 100 µM (not active)
- IC50 [18]: > 100 µM (inactive)

Structure (SMILES): Cc1cc(/C=N/Nc2ccc([N+](=O)[O-])cn2)c(C)n1-c1ccc(C(=O)O)cc1
- IC50 [19]: 6.16 µM (active)
- EC50 [20]: > 300 µM (not active)
- EC50 [21]: 111 µM (active)
- IC50 [22]: 12.7 µM (active)
- IC50 [23]: 29 µM (active)
- IC50 [24]: 50 µM (inactive)
- AC50 [25]: 5.03 µM (active)

Structure (SMILES): O=C(CCS(=O)(=O)c1ccc(Br)cc1)N1CCN(c2ccc(F)cc2)CC1
- IC50 [1]: 24.2 µM (active)
- IC50 [2]: > 100 µM (inactive)

Structure (SMILES): Cc1ccc(C(=O)OCC(=O)NC2CCCCC2)o1
- IC50 [1]: 51 µM (active)
- IC50 [2]: 63 µM (active)

Structure (SMILES): O=C(O)C1Nc2c(cccc2S(=O)(=O)c2ccccc2)C2C=CCC12 (stereo not drawn)
- IC50 [15]: 11 µM (active)
- IC50 [16]: 52.2 µM (active)
- IC50 [17]: 56.4 µM (active)
- IC50 [18]: 58.7 µM (active)

Structure (SMILES): COc1ccc(Oc2c(-c3ccco3)cnn(-c3ccc(C)cc3)c2=O)cc1
- IC50 [10]: 13.5 µM (inactive)
